Experimental data from US20240390329A1, “APPLICATION OF CHANNEL BLOCKER IN PREPARATION OF DRUGS FOR TREATING AND/OR PREVENTING LIVER FIBROSIS” (Affiliated Hospital of Zunyi Medical University, priority 2023, published 2024).
Entries after “also recorded” stand apart in the source; their conditions may differ.

Key:
[1] = Drug group: healthy mice given PHT sodium alone, compared with normal control group; assay type: in vivo, male C57 mice
[2] = test system: hepatic stellate cells (HSCs); test: CCK-8 detection of the effect of PHT sodium on proliferation of HSCs; assay type: cell-based; settings: CCK-8, 48 hours; read-out: IC50 value on HSC proliferation
Description: 1) Cell recoveries are performed as follows. After irradiation with an ultraviolet lamp for 30 minutes on a super clean bench, white light and circulating air flow are turned on, a centrifuge tube is taken, and 3 mL of culture medium is added into the centrifuge tube. The frozen cells are quickly taken out of a refrigerator at −80° C. and put into a constant-temperature water bath at 37° C. to be thawed, and then the cells are sucked out from the super clean bench and put into the prepared centrifuge tube. After sealing, the cells are centrifuged in a centrifuge for 5 minutes (at a speed of 1000 rpm), then a culture flask is prepared, the name and date of the cells are marked, the supernatant is poured out after centrifugation, and a new culture medium is added to blow and mix. Finally, the mixed cells are added to the marked culture flask, and the flask is sprayed with 75% alcohol and placed in a constant temperature incubator for culture. 2) Cell passage is performed as follows. […] The cells in good condition are digested, and then the cells are counted. […] After 1-4 hours of incubation in the incubator, the absorbance is detected by a microplate reader.

HSCs induced by TGF-β1 = test: CCK-8 detection of the effect of PHT sodium on TGF-β1 induced proliferation of HSCs; assay type: cell-based; settings: PHT sodium 200 μM, p<0.05
Description: The cells in good condition are digested, and then the cells are counted. After counting the concentration ratio, the corresponding volume of cell suspension and culture medium are taken to make the cell concentration required for the experiment. The cells are fully mixed and added to a 96-well plate. According to the experimental requirements, different interventions are given to the cells. After 48 hours, 10% CCK8 solution (the ratio between culture medium and CCK8 is 10:1) is added to each well. After 1-4 hours of incubation in the incubator, the absorbance is detected by a microplate reader.
The effect of TGF-β1 on the proliferation of HSCs is detected by the CCK8 method.

[3] = test system: HSCs (α-SMA, LC3, p62 expression); test: Western blotting of α-SMA, LC3 and p62 in HSCs stimulated with TGF-β1; assay type: cell-based; settings: TGF-β1+PHT vs TGF-β1 alone; PHT sodium 200 μM; p<0.05
Description: Extraction of cell protein: the cells that need to be extracted protein are removed from the incubator, rinsed twice with the prepared PBS solution, placed on a clean filter paper, and the remaining PBS is dried. Then, a certain amount of radio immunoprecipitation assay (RIPA) protein lysis solution is added according to the growth of the cells, and the protein is lysed for about 30 minutes. Then, the lysed protein stock solution is scraped with a scraper, placed in prepared EP tubes, and then placed in a high-speed centrifuge and centrifuged at 12,000 rpm at 4° C. for 30 minutes. After centrifugation is completed, the supernatant is taken for subsequent protein quantification.

[4] = test system: carbon tetrachloride (CCl4) induced liver fibrosis; test: Mouse model of liver fibrosis induced by CCl4, treatment group given PHT sodium
[5] = drug group vs normal control group
[6] = treatment group vs model group, p<0.05

Structure (SMILES): O=C1NC(=O)C(c2ccccc2)(c2ccccc2)N1 [PHT sodium, phenytoin sodium]
- liver lobules (HE, Masson's trichrome, picric-Sirius red staining) ([1]; drug group): intact and structurally normal
- appearance of the liver [1, 5]: no significant difference
- transaminase (ALT, AST) in serum [1, 5]: no significant difference
- positive expression of α-SMA in liver sections (immunohistochemistry) ([1]; drug group, at edges of hepatic portal vein and central vein): only a small amount of positive expression
- general state of mice (fur, activity) ([1]; drug group, food and water intake normal): smooth fur and active activity
- IC50 [2]: 234 µM
- proliferation of HSCs promoted by TGF-β1 (HSCs induced by TGF-β1): inhibited
- expression of autophagy substrate protein p62 in HSCs [3]: significantly increased
- expression of autophagy-related protein LC3 in HSCs [3]: significantly decreased
- expression of α-SMA in HSCs [3]: significantly lower; also recorded: decreased
- collagen content in the liver of mice ([4]; staining of liver sections): reduce
- liver texture (appearance of the liver, naked eye) ([4]; treatment group vs model group): softer than that of the model group
- activity of the mice ([4]; treatment group vs model group, PHT sodium 1 mM, 10 mL/kg i.p. once a day): significantly increased
- degree of liver fibrosis (HE, Masson's trichrome, picric-Sirius red staining) ([4]; treatment group vs model group, liver sections): reduced
- expression of LC3 in liver tissue (Western blotting) [4, 6]: decreased
- expression of p62 in liver tissue (Western blotting) [4, 6]: increased
- expression of α-SMA in liver tissue (Western blotting) [4, 6]: decreased
- positive expression of α-SMA in liver sections (immunohistochemistry) [4, 6]: decreased compared with the model group
- transaminase (ALT, AST) in serum [4, 6]: lower than that in the model group
